Key:
[1] = tested on: patients with type 2 diabetes mellitus and CKD (eGFR 25 to 60 ml per minute per 1.73 m^2); format: in vivo
Text: The cardiorenal protective properties of sotagliflozin in patients with type 2 diabetes informed research that led to the present invention. […] The primary end point was changed during the trial to the composite of the total number of deaths from cardiovascular causes, hospitalizations for heart failure, and urgent visits for heart failure.
Of 19.188 patients screened, 10,584 were enrolled, with 5,292 assigned to the sotagliflozin group and 5,292 assigned to the placebo group and followed for a median of 16 months. The rate of primary end-point events was 5.6 events per 100 patient-years in the sotagliflozin group and 7.5 events per 100 patient-years in the placebo group: hazard ratio, 0.74; 95% confidence interval (CI), 0.63 to 0.88; P<0.001. The rate of deaths from cardiovascular causes per 100 patient-years was 2.2 with sotagliflozin and 2.4 with placebo (hazard ratio, 0.90; 95% CI, 0.73 to 1.12; P=0.35). For the original coprimary end point of the first occurrence of death from cardiovascular causes, nonfatal myocardial infarction, or nonfatal stroke, the hazard ratio was 0.84 (95% CI, 0.72 to 0.99); for the original coprimary end point of the first occurrence of death from cardiovascular causes or hospitalization for heart failure, the hazard ratio was 0.77 (95% CI, 0.66 to 0.91). Diarrhea, genital mycotic infections and volume depletion were more common with sotagliflozin than with placebo.
Table 1 provides the number and type of cardiorenal events observed during the trial, wherein each of the sotagliflozin and placebo groups contained 5292 patients.

[2] = tested on: patients with type 1 diabetes receiving insulin therapy (overall and CKD cohorts); assay: inTandem3 phase 3, double-blind trial, sotagliflozin 400 mg per day vs placebo for 24 weeks; format: in vivo, human; conditions: for placebo-adjusted systolic blood pressure, least-squared mean change: after 16 weeks; for DKA, HR (95% CI) / Severe hypoglycemia, HR (95% CI): 400 mg/day vs placebo
Method: The in Tandem3 study was a phase 3, double-blind trial conducted at 133 centers worldwide. In the study, 1402 patients with type 1 diabetes who were receiving treatment with insulin therapy (pump or injections) were randomly assigned to receive sotagliflozin (400 mg per day) or placebo for 24 weeks. The primary end point was a glycated hemoglobin level lower than 7.0% at week 24 with no episodes of severe hypoglycemia or diabetic ketoacidosis after randomization. Secondary end points included the change from baseline in glycated hemoglobin level, weight, systolic blood pressure, and mean daily bolus dose of insulin. Specific details of the study were reported in Garg, S. K., et al., “Effects of Sotagliflozin Added to Insulin in Patients with Type 1 Diabetes” N. Engl. J. Med. 2017:377:2337-48.
The rate of severe hypoglycemia was similar in the sotagliflozin group and the placebo group (3.0% [21 patients] and 2.4% [17 patients], respectively). […] The rate of DKA was higher in the sotagliflozin group than in the placebo group (3.0% [21 patients] and 0.6%, respectively). Id. at 2337.
For this invention, data from CKD patients were compared to those of the overall cohort. As shown below, 16% of patients had CKD at baseline: […]

T1D patients = conditions: cited from earlier work
[3] = T2D and CKD, 5292 patients per group
[4] = 400 mg per day, overall population
[5] = 400 mg/day, CKD Cohort N = 115, 24 weeks

With CCOc1ccc(Cc2cc([C@@H]3O[C@H](SC)[C@@H](O)[C@H](O)[C@H]3O)ccc2Cl)cc1 [sotagliflozin, (2S,3R,4R,5S,6R)-2-(4-chloro-3-(4-ethoxybenzyl)phenyl)-6-(methylthio)tetrahydro-2H-pyran-3,4,5-triol] the “50% decline in eGFR (sustained or last value), n (%)” value [1, 3] was 75 (1.4) n (%), the “Chronic dialysis or transplant, n (%)” value [1, 3] was 15 (0.3) n (%) and the “End-stage kidney disease, n (%)” value [1, 3] was 50 (0.9) n (%). The “Renal death, n (%)” value [1, 3] was 8 (0.2) n (%), the “eGFR <15 mL/min/m^2 (sustained or last value), n (%)” value [1, 3] was 41 (0.8) n (%) and the “First event in composite, n (%)” value ([1]; cardiorenal composite, T2D and CKD, 5292 patients per group, median follow-up 16 months) was 239 (4.5) n (%). The “risk of cardiorenal endpoints” value ([1]; compared to placebo, FIG. 1) was “significantly reduced”, the “rate of primary end-point events” value ([1]; composite of deaths from cardiovascular causes, hospitalizations for heart failure, urgent visits for heart failure, median 16 months) was 5.6 events per 100 patient-years and the “Diarrhea, genital mycotic infections and volume depletion” value ([1]; human, in vivo) was “more common”. The “rate of deaths from cardiovascular causes” value ([1]; median follow-up 16 months) was 2.2 per 100 patient-years, the “50% decline in eGFR (sustained or last value), HR (95% CI)” value ([1]; vs placebo) was 0.60 (0.45, 0.81) and the “End-stage kidney disease, HR (95% CI)” value ([1]; vs placebo) was 0.63 (0.45, 0.91). For the same compound, the “Renal death, HR (95% CI)” value ([1]; vs placebo) was 1.59 (0.52, 4.86), the “eGFR <15 mL/min/m^2 (sustained or last value), HR (95% CI)” value ([1]; vs placebo) was 0.60 (0.41, 0.88) and the “primary end point hazard ratio” value ([1]; vs placebo, 95% CI 0.63 to 0.88) was 0.74. For the same compound, the “hazard ratio, original coprimary end point: first occurrence of death from cardiovascular causes or hospitalization for heart failure” value ([1]; vs placebo, 95% CI 0.66 to 0.91) was 0.77, the “hazard ratio, original coprimary end point: first occurrence of death from cardiovascular causes, nonfatal myocardial infarction, or nonfatal stroke” value ([1]; vs placebo, 95% CI 0.72 to 0.99) was 0.84 and the “First event in composite, HR (95% CI)” value ([1]; vs placebo, T2D and CKD) was 0.77 (0.65, 0.91). The “placebo-adjusted systolic blood pressure, least-squared mean change” value ([2]; 400 mg per day, CKD group, SE=1.81) was −7.1 mm Hg, the “placebo-adjusted change in HbA1C, least-squared mean” value ([2]; 400 mg per day, CKD group, after 24 weeks, SE=0.120) was −0.46% and the “placebo-adjusted change in body weight, least-squared mean” value ([2]; 400 mg per day, CKD group, after 24 weeks, SE=0.464) was -2.82 kg. The “number of patients achieving the primary end point” value ([2]; 400 mg per day, of 699 patients) was 200 patients, the “mean daily bolus dose of insulin, least-squares mean change from baseline, difference vs placebo” value [2, 4] was −2.8 units per day and the “proportion of patients achieving the primary end point (glycated hemoglobin lower than 7.0% at week 24 with no severe hypoglycemia or DKA)” value [2, 4] was 28.6%. The “systolic blood pressure, least-squares mean change from baseline, difference vs placebo” value [2, 4] was −3.5 mm Hg, the “glycated hemoglobin, least-squares mean change from baseline, difference vs placebo” value ([2]; 400 mg per day, overall population, 24 weeks) was −0.46 percentage points and the “placebo-adjusted systolic blood pressure, least-squared mean change” value ([2]; 400 mg per day, total, overall population, SE=0.57) was −3.8 mm Hg. The “placebo-adjusted change in body weight, least-squares mean” value ([2]; 400 mg per day, total, overall population, after 24 weeks) was -2.98 kg, the “placebo-adjusted change in HbA1C, least-squared mean” value ([2]; 400 mg per day, total, overall population, after 24 weeks, SE=0.042) was −0.46% and the “DKA, HR (95% CI)” value ([2]; CKD Cohort, 24 weeks) was 3.5. For the same compound, the “Severe hypoglycemia, HR (95% CI)” value ([2]; CKD Cohort, 24 weeks) was 1.7, the “DKA, HR (95% CI)” value ([2]; Overall Cohort, 24 weeks) was 5.5 and the “Severe hypoglycemia, HR (95% CI)” value ([2]; Overall Cohort, 24 weeks) was 1.3. For the same compound, the “DKA, %” value [2, 5] was “(2.6) %”, the “Severe hypoglycemia, %” value [2, 5] was “(7.0) %” and the “rate of documented hypoglycemia with a blood glucose level of 55 mg per deciliter (3.1 mmol per liter) or below” value ([2]; sotagliflozin group vs placebo group) was “significantly lower”. For the same compound, the albuminuria (T1D patients) was “reduction in albuminuria”, the blood pressure (T1D patients) was “lowered blood pressure” and the eGFR (T1D patients) was “acute change in eGFR”. For the same compound, the hemoconcentration (T1D patients) was “induced mild hemoconcentration” and the “risk of diabetic ketoacidosis (DKA)” value (T1D patients) was “increased”.

From patent US20250108032A1, “METHODS OF TREATING TYPE 1 DIABETES AND KIDNEY DISEASE” (LEXICON PHARMACEUTICALS, INC., priority 2023, published 2025)
